Measured values from patent publication US8299262B2, “Pyridylmethyl-sulfonamide compounds” (BASF SE, priority 2007, dated 2012).
Read-outs that look alike come from different tables or passages of the source.

Key:
Colletotrichum truncatum = test: Synergistic mixtures, microtiter test, Colletotrichum truncatum (Use Example 28); assay type: cell-based; conditions: single compound, 16 ppm
Gaeumannomyces graminis = test: Synergistic mixtures, microtiter test, Gaeumannomyces graminis (Use Example 30); assay type: cell-based; conditions: single compound
Pyricularia oryzae = assay type: cell-based; conditions: single compound
Septoria tritici = test: Synergistic mixtures, microtiter test, leaf blotch pathogen Septoria tritici (Use Example 26); assay type: cell-based; conditions: single compound, 4 ppm
Fusarium culmorum = test: Synergistic mixtures, microtiter test, Fusarium culmorum (Use Example 27); assay type: cell-based; conditions: single compound, 16 ppm
Fusarium oxysporum = conditions: single compound, 16 ppm
Pyrenophora teres = test: Synergistic mixtures, microtiter test, net blotch pathogen Pyrenophora teres (Use Example 29); assay type: cell-based; conditions: single compound
Verticillium dahliae = conditions: single compound, 4 ppm
Puccinia recondita = test: Synergistic mixtures, greenhouse, preventative control of brown rust on wheat caused by Puccinia recondita (Use Example 34); assay type: in vivo; conditions: single compound, untreated control 90% disease
Method: These percentages were converted into efficacies. An efficacy of 0 means that the growth level of the pathogens corresponds to that of the untreated control; an efficacy of 100 means that the pathogens were not growing.
The expected efficacies of active compound mixtures were determined using Colby's formula [R. S. Colby, Calculating synergistic and antagonistic responses of herbicide combinations, Weeds 15, 20-22 (1967)] and compared with the observed efficacies. E=x+y−x·y/100 Colby's formula • E expected efficacy, expressed in % of the untreated control, when using the mixture of the compounds A and B at the concentration a and b • x efficacy, expressed in % of the untreated control, when using compound A at a concentration of a • y efficacy, expressed in % of the untreated control, when using compound B at a concentration of b A) Microtiter Tests
The spray solutions were prepared in several steps:
The stock solution were prepared as follows: a mixture of acetone and/or dimethylsulfoxide and the wetting agent/emulsifier Wettol, which is based on ethoxylated alkylphenoles, in a relation (volume) solvent-emulsifier of 99 to 1 was added to 25 mg of the compound to give a total of 10 ml. Water was then added to total volume of 100 ml.
This stock solution was diluted with the described solvent-emulsifier-water mixture to the given concentration. The compounds pyraclostrobin, boscalid and epoxiconazole were used as commercial finished formulations and diluted with water to the stated concentration of the active compound.
The first two developed leaves of pot-grown wheat seedling were sprayed to run-off with an aqueous suspension, containing the concentration of active ingredient or their mixture as described below. The next day the plants were inoculated with spores of Puccinia recondita. To ensure the success the artificial inoculation, the plants were transferred to a humid chamber without light and a relative humidity of 95 to 99% and at temperatures between 20 and 24° C. for 24 h. Then, the plants were cultivated for 6 days in a greenhouse chamber at 20 to 24° C. and a relative humidity between 65 and 70%. The extent of fungal attack on the leaves was visually assessed as % diseased leaf area.

Thielaviopsis basicola = test: Synergistic mixtures, microtiter test, Thielaviopsis basicola (Use Example 31); assay type: cell-based; conditions: single compound
Alternaria solani = test: Synergistic mixtures, microtiter test, early blight pathogen Alternaria solani (Use Example 24); assay type: cell-based; conditions: single compound, 0.063 ppm
Septoria glycines = test: Microtiter test, Septoria glycines (Use Example 7); assay type: cell-based; conditions: 125 ppm; control =100%, day 7

Cc1nccc(CNS(=O)(=O)c2ccc(Oc3ncc(C(F)(F)F)cc3Cl)cc2)c1C [Example 27]
Observed efficacy (%) (Colletotrichum truncatum): 45% | Observed efficacy (%) (Gaeumannomyces graminis; 0.016 ppm): 58% | Observed efficacy (%) (Pyricularia oryzae; 0.063 ppm): 65% | Observed efficacy (%) (Pyricularia oryzae; 0.25 ppm): 65% | Observed efficacy (%) (Septoria tritici): 47% | Observed efficacy (%) (Fusarium culmorum): 0% | Observed efficacy (%) (Fusarium oxysporum): 13% | Observed efficacy (%) (Pyrenophora teres; 1 ppm): 31% | Observed efficacy (%) (Verticillium dahliae): 56% | Observed efficacy (%) (Puccinia recondita; 4 ppm): 0% | Observed efficacy (%) (Puccinia recondita; 16 ppm): 22% | Observed efficacy (%) (Thielaviopsis basicola; 1 ppm): 1% | Observed efficacy (%) (Thielaviopsis basicola; 4 ppm): 21%

COc1cnccc1CNS(=O)(=O)c1ccc(Oc2ccccn2)cc1 [Example 8]
Observed efficacy (%) (Gaeumannomyces graminis; 0.063 ppm): 0% | Observed efficacy (%) (Alternaria solani): 3% | relative growth of the pathogen (Septoria glycines): at most 25% | Observed efficacy (%) (Fusarium culmorum): 0% | Observed efficacy (%) (Pyrenophora teres; 0.25 ppm): 0% | Observed efficacy (%) (Pyrenophora teres; 1 ppm): 9% | Observed efficacy (%) (Thielaviopsis basicola; 4 ppm): 11% | Observed efficacy (%) (Thielaviopsis basicola; 16 ppm): 6%
